The source of these data is patent publication US8455549B2, “Carbonylamino derivatives useful for the treatment of certain inflammatory disorders” (Aniona Aps, priority 0207, dated 2013).

SMILES strings stand for the structures.

This test has as its system DNBS-induced distal colitis. The experiment in a line: Inhibition of 2,4-Dinitrobenzenesulfonic Acid (DNBS)-induced distal colitis in rats. It is filed as in vivo, rat. The following applies: PO bid × 7, dose not specified. How it is done:
Test substances A and B were evaluated for possible inhibition of 2,4-Dinitrobenzenesulfonic Acid (DNBS)-induced distal colitis in rats, which is a model of inflammatory bowel disease. The test compounds were soluble in a mixture of Cremophore EL, PEG400 and distilled water (10:10:80). Test substance was administered orally (PO) twice daily for 7 consecutive days. The dosing volume used was 10 ml/kg for PO. For test of Compound A groups of 10 Wistar derived male rats (BioLasco Taiwan) weighing 200±10 g were used. For test of Compound B groups of 5 Wistar derived male rats (BioLasco Taiwan) weighing 210±5 g were used. […] During the experiment, faecal occult blood and stool consistency were monitored daily. […] Also, the presence of colonic ulceration after removal and weighing of each colon (a macroscopic damage score) was recorded. […] The colon-to-body weight ratio was calculated according to the formula: (A) Colon-to-Body weight ratio (Colon weight/100 g B. W.) for each rat in respective treatment groups (vehicle blank, vehicle+DNBS, Test substance+DNBS and positive reference agent+DNBS) (B) The Net Increase of Colon weight/100 g B. W. For “vehicle+DNBS”: [(vehicle+DNBS)−(vehicle blank)] mean value of colon-to-body weight ratio For “test substance+DNBS”: [(test substance+DNBS)−(vehicle blank)] mean value of colon-to-body weight ratio (C) The percent decrease of colon weight/100 g B. Wt. […]

In the case of `CC(C)C(C(N)=O)(c1ccc(F)cc1)c1ccc(F)cc1` [Compound A, 2,2-Bis-(4-fluoro-phenyl)-3-methyl-butyramide], the “stool consistency, occult faecal blood and macroscopic damage (adhesion and ulcers) in the colon” value is recorded as “improved”.
To `NC(=O)C(c1ccccc1)(c1ccc(F)cc1)c1ccc(F)cc1` [Compound B, 2,2-Bis-(4-fluoro-phenyl)-2-phenyl-acetamide] belongs “improved”.
